From ChEMBL document CHEMBL4130493, “An insight into the biological activities of heterocyclic-fatty acid hybrid molecules” (Eur J Med Chem, 2017) come the findings set out here.

Test [1] concerns Escherichia coli. Nature of the test: Antibacterial activity against Escherichia coli MTCC 40 incubated for 24 hrs by serial two-fold dilution method. The settings on record: MTCC 40, 24 h. The class given is functional.
For test [2], the system named is Pseudomonas aeruginosa. Nature of the test: Antibacterial activity against Pseudomonas aeruginosa MTCC 2453 incubated for 24 hrs by serial two-fold dilution method. It counts as functional. The following applies: MTCC 2453, 24 h.
For test [3], the system named is Staphylococcus aureus. Nature of the test: Antibacterial activity against Staphylococcus aureus MSSA 22 at 100 ug/mL incubated for 24 hrs by filter paper disc method. The class given is functional. The settings on record: MSSA 22, 24 h, read-out: DIZ.
Test [4] concerns Bacillus subtilis. Nature of the test: Antibacterial activity against Bacillus subtilis ATCC 6051 at 100 ug/mL incubated for 24 hrs by filter paper disc method. It counts as functional. The settings on record: ATCC 6051, 24 h, read-out: DIZ.
Test [5] deals with Escherichia coli. Put plainly: Antibacterial activity against Escherichia coli K-12 at 100 ug/mL incubated for 24 hrs by filter paper disc method. It counts as functional. The following applies: K-12, 24 h, read-out: DIZ.
A further test has as its system Salmonella typhimurium. Put plainly: Antibacterial activity against Salmonella typhimurium MTCC98 at 100 ug/mL incubated for 24 hrs by filter paper disc method. The class given is functional, Salmonella enterica subsp. enterica serovar Typhimurium. The settings on record: Salmonella enterica, MTCC98, 24 h; read-out: DIZ.
The subject of test [6] is Candida albicans. Put plainly: Antifungal activity against Candida albicans IOA-109 at 100 ug/mL incubated for 18 to 48 hrs by agar disc diffusion method. It counts as functional. The settings on record: read-out: DIZ. For orientation: A growth-free zone around the sample is the usual read-out of agar diffusion tests.
The next test has as its system Hep 3B2. Put plainly: Cytotoxicity in human Hep3B cells incubated for 48 hrs by MTT assay. The class given is functional, cell-based. (In general: Tetrazolium assays rely on reduction of a dye to a coloured formazan, in cell work by metabolically active cells.)
The subject of another test is Plasmodium falciparum. Put plainly: Antimalarial activity against Plasmodium falciparum infected in erythrocytes assessed as inhibition of increase in parasite density after 72 hrs. The class given is functional, organism-based.
The test system of test [7] is Bacillus subtilis. Nature of the test: Antibacterial activity against Bacillus subtilis MTCC 121 incubated for 24 hrs by filter paper disc method. The class given is functional.
Test [8] has as its system Pseudomonas aeruginosa. Put plainly: Antibacterial activity against Pseudomonas aeruginosa incubated for 24 hrs by filter paper disc method. It counts as functional.
The test system of test [9] is Staphylococcus aureus. Nature of the test: Antibacterial activity against Staphylococcus aureus MSSA 22 incubated for 24 hrs by filter paper disc method. It counts as functional.
Test [10] has as its system Escherichia coli. Nature of the test: Antibacterial activity against Escherichia coli K-12 incubated for 24 hrs by filter paper disc method. The class given is functional.
Test [11] has as its system Candida albicans. Put plainly: Antifungal activity against Candida albicans IOA-109 at 50 ug/disc incubated for 5 to 6 days by disc diffusion method. It counts as functional. The following applies: read-out: DIZ.
The test system of another test is A549. Nature of the test: Cytotoxicity in human A549 cells by SRB assay. The class given is functional. The settings on record: read-out: TC50 (the source's name). (In general: In SRB staining, fixed cells bind dye roughly in proportion to their protein.)

Structures are written as SMILES. Values after ≈ are worked out from the molar mass of the structure shown.

Take `CCCCCCCCCCCCCC(=O)NN1C(=O)CSC1c1ccc(O)cc1` (stereo not given): the MIC in the test with Escherichia coli [1] and with Pseudomonas aeruginosa [2] was 0.35 to 0.7 µg/mL (≈ 0.832 to 1.66 µM) in each case.

On to `CCCCCCCCCCCCCC(=O)NN1C(=O)CSC1c1ccccc1` (stereo not given), for which the minimal inhibitory concentration (MIC) in the test with Escherichia coli [1] and in the test on Pseudomonas aeruginosa [2] was 0.35 to 0.7 µg/mL (≈ 0.865 to 1.73 µM) throughout.

Regarding `CCCCCCC(O)C/C=C\CCCCCCCc1nc(-c2ccccc2)n[nH]1` (stereo not given), the zone of inhibition at 100 µg/mL is 13.1 to 22.2 mm in the test with Staphylococcus aureus [3]; 13.1 to 22.2 mm in the test with Bacillus subtilis [4]; 13.1 to 22.2 mm in the test on Escherichia coli [5]; 13.1 to 22.2 mm with Salmonella typhimurium; 17.2 to 19 mm in the test on Candida albicans [6].

In the case of `CCCCCCC(O)C/C=C\CCCCCCCc1nc(-c2ccc(O)c(O)c2)n[nH]1` (stereo not given), the zone of inhibition at 100 µg/mL in the test with Staphylococcus aureus [3] fell in the range of 13.1 to 22.2 mm; with Bacillus subtilis [4], 13.1 to 22.2 mm; in the test on Escherichia coli [5], 13.1 to 22.2 mm; with Salmonella typhimurium, 13.1 to 22.2 mm; in the test with Candida albicans [6] it was 17.2 to 19 mm.

`CCCCCCCCCCCCCCCC(=O)NN1C(=O)CSC1c1ccc(OC)cc1` (stereo not given): the minimum inhibitory concentration (MIC) in the test with Escherichia coli [1] and against Pseudomonas aeruginosa [2] was 0.35 to 0.7 µg/mL (≈ 0.756 to 1.51 µM) each time.

Consider `C=CCCCCCCCCc1n[nH]c(=S)o1`, for which the half-maximal inhibitory concentration (IC50) in the test on Hep 3B2 was determined as 8.94 µM.

Turning to `C=C[C@H]1CN2CC[C@H]1C[C@H]2[C@H](OCCCCCCCCCCCCCCCCCC)c1ccnc2ccc(OC)cc12`, the EC50 in the test with Plasmodium falciparum lay within 7 to 20 µM.

As to `CCCCC/C=C\CCC(O)CCCCCCCc1nc(-c2ccccc2)n[nH]1` (stereo not given), the zone of inhibition at 100 µg/mL in the test with Staphylococcus aureus [3] is 13.1 to 22.2 mm; in the test on Bacillus subtilis [4], 13.1 to 22.2 mm; in the test with Escherichia coli [5] it was 13.1 to 22.2 mm; with Salmonella typhimurium it was 13.1 to 22.2 mm; in the test with Candida albicans [6], 17.2 to 19 mm.

As to `C=C[C@H]1CN2CC[C@H]1C[C@H]2[C@H](OCCCCCCCCCCCC)c1ccnc2ccc(OC)cc12`, the EC50 with Plasmodium falciparum fell in the range of 7 to 20 µM.

`C=C[C@H]1CN2CC[C@H]1C[C@H]2[C@H](O/C=C/C=C/CCCCCCCCCCCCCC)c1ccnc2ccc(OC)cc12`: in the test on Plasmodium falciparum, the EC50 lay within 7 to 20 µM.

`CCCCCCC(O)C/C=C\CCCCCCCc1nc(-c2cccc(O)c2)n[nH]1` (stereo not given): the zone of inhibition at 100 µg/mL fell in the range of 13.1 to 22.2 mm in the test on Staphylococcus aureus [3]; 13.1 to 22.2 mm in the test with Bacillus subtilis [4]; 13.1 to 22.2 mm with Escherichia coli [5]; 13.1 to 22.2 mm in the test with Salmonella typhimurium; 17.2 to 19 mm with Candida albicans [6].

Take `CCCCCCCCCCCCCCCCCc1nc(-c2ccc(O)c(O)c2)n[nH]1`: the zone of inhibition at 100 µg/mL was 13.1 to 22.2 mm in the test on Staphylococcus aureus [3]; 13.1 to 22.2 mm in the test with Bacillus subtilis [4]; 13.1 to 22.2 mm with Escherichia coli [5]; 13.1 to 22.2 mm in the test with Salmonella typhimurium; 17.2 to 19 mm with Candida albicans [6].

Regarding `CCCCCCC(O)C/C=C\CCCCCCC(=O)N1N=C(C)CC1=O` (stereo not given), the “diameter of the inhibition zone (DIZ)” value with Bacillus subtilis [7], with Pseudomonas aeruginosa [8], with Staphylococcus aureus [9] and with Escherichia coli [10] was 10 - 18 mm each time.

With `CCCCCCCCCCCCCC(=O)NN1C(=O)CSC1c1ccc(Cl)cc1` (stereo not given), the minimal inhibitory concentration (MIC) with Escherichia coli [1] and in the test with Pseudomonas aeruginosa [2] was 0.35 to 0.7 µg/mL (≈ 0.797 to 1.59 µM) throughout.

As for `C=C[C@H]1CN2CC[C@H]1C[C@H]2[C@H](O/C=C/C=C/C=C/C=C/C=C/CCCCCCCCCC)c1ccnc2ccc(OC)cc12`, the concentration for a half-maximal effect (EC50) in the test on Plasmodium falciparum lay in the range of 7 to 20 µM.

Consider `CCCCCCCC/C=C\C(O)CCCCCCC(=O)n1nnc2ccccc21` (stereo not given), for which the zone of inhibition at 50 µg/disc in the test with Candida albicans [11] fell in the range of 16 to 20 mm.

Turning to `CCCCCCCCCCCCCCCC(=O)NN1C(=O)CSC1c1ccc(Cl)cc1` (stereo not given), the MIC in the test with Escherichia coli [1] and against Pseudomonas aeruginosa [2] was 0.35 to 0.7 µg/mL (≈ 0.749 to 1.5 µM) in each case.

For the molecule `CCCCCCCC/C=C\CCCCCCCc1nc(-c2ccc(O)c(O)c2)n[nH]1`, the zone of inhibition at 100 µg/mL with Staphylococcus aureus [3] lay within 13.1 to 22.2 mm; with Bacillus subtilis [4], 13.1 to 22.2 mm; in the test on Escherichia coli [5] it was 13.1 to 22.2 mm; in the test on Salmonella typhimurium, 13.1 to 22.2 mm; with Candida albicans [6], 17.2 to 19 mm.

Turning to `CCCCCCCC/C=C\CCCCCCCc1nc(-c2ccccc2)n[nH]1`, the zone of inhibition at 100 µg/mL in the test with Staphylococcus aureus [3] lay within 13.1 to 22.2 mm; with Bacillus subtilis [4] it was 13.1 to 22.2 mm; in the test with Escherichia coli [5], 13.1 to 22.2 mm; in the test on Salmonella typhimurium, 13.1 to 22.2 mm; in the test on Candida albicans [6], 17.2 to 19 mm.

Regarding `CCCCC/C=C\CCC(O)CCCCCCCc1nc(-c2cccc(O)c2)n[nH]1` (stereo not given), the zone of inhibition at 100 µg/mL in the test with Staphylococcus aureus [3] was in the range of 13.1 to 22.2 mm; in the test with Bacillus subtilis [4], 13.1 to 22.2 mm; in the test on Escherichia coli [5], 13.1 to 22.2 mm; with Salmonella typhimurium, 13.1 to 22.2 mm; in the test with Candida albicans [6] it was 17.2 to 19 mm.

In the case of `CCCCCCCCCCCCCCCC(=O)NN1C(=O)CSC1c1ccc([N+](=O)[O-])cc1` (stereo not given), the minimal inhibitory concentration (MIC) in the test on Escherichia coli [1] and in the test on Pseudomonas aeruginosa [2] was 0.35 to 0.7 µg/mL (≈ 0.733 to 1.47 µM) each time.

Take `CCCCCCCCCCCCCCCC(=O)NN1C(=O)CSC1c1ccccc1` (stereo not given): the MIC against Escherichia coli [1] and in the test with Pseudomonas aeruginosa [2] was 0.35 to 0.7 µg/mL (≈ 0.809 to 1.62 µM) each time.

`CCCCCCCCCCCCCCCCCc1nnc(S)o1`: in the test with A549, the CC50 was found to be 0.143 µM.

One may read the MIC as the smallest concentration in the dilution series that meets the test's criterion for growth inhibition. Read a high MIC as a need for much substance. As a reminder, the IC50 is the concentration at which inhibition is half-maximal. In general, EC50 refers to the midpoint of the concentration-response curve.
